Results as given in patent publication US11382328B2, “Rapid drug discovery methods for pathogen inactivation” (priority 2019, dated 2022).
Where “and” joins values, the source holds several entries; their conditions need not be identical. Equal entries are not always repeated. Structures can show the parent of a compound that is named as a salt. Where two headings read alike, the source gives them in different places.

Tested on: E. coli strain W3110
Assay: Synergy assays: Biolog chemical sensitivity panels with Group IB metal, coefficient of drug interaction (CDI) from relative growth
Type: cell-based
Conditions: for CDI (coefficient of drug interaction), copper mixed with biocide: Copper (mM) section
[1] = Silver 0.5 μM, 4th of four biocide concentrations, E. coli
[2] = Silver 1.0 μM, 4th of four biocide concentrations, E. coli
[3] = Silver 5.0 μM, 4th of four biocide concentrations, E. coli
[4] = 1st of 3 copper concentrations (value not shown), 4th of four biocide concentrations
[5] = 2nd of 3 copper concentrations (value not shown), 4th of four biocide concentrations
[6] = 3rd of 3 copper concentrations (value not shown), 4th of four biocide concentrations
[7] = Gold section of Table 5, first of three gold concentrations (μM, value not given), biocide concentration 3 of 4
[8] = Gold section of Table 5, first of three gold concentrations (μM, value not given), biocide concentration 4 of 4
[9] = Gold section of Table 5, second of three gold concentrations (μM, value not given), biocide concentration 3 of 4
[10] = Gold section of Table 5, second of three gold concentrations (μM, value not given), biocide concentration 4 of 4
[11] = Gold section of Table 5, third of three gold concentrations (μM, value not given), biocide concentration 3 of 4
[12] = Gold section of Table 5, third of three gold concentrations (μM, value not given), biocide concentration 4 of 4
[13] = Silver 0.5 μM, biocide concentration 3 of 4
[14] = Silver 0.5 μM, biocide concentration 4 of 4
[15] = Silver 1.0 μM, biocide concentration 3 of 4
[16] = Silver 1.0 μM, biocide concentration 4 of 4
[17] = Silver 5.0 μM, biocide concentration 3 of 4
[18] = Silver 5.0 μM, biocide concentration 4 of 4
[19] = Copper (mM), 1st of 3 copper concentrations (head line not shown), biocide concentration 4 of 4, E. coli
[20] = Copper (mM), 2nd of 3 copper concentrations (head line not shown), biocide concentration 3 of 4, E. coli
[21] = Copper (mM), 2nd of 3 copper concentrations (head line not shown), biocide concentration 4 of 4, E. coli
[22] = Copper (mM), 3rd of 3 copper concentrations (head line not shown), biocide concentration 4 of 4, E. coli

c1ccc(-c2ccccn2)nc1 [2,2′-dipyridyl]
CDI (Copper 0.1 mM, biocide concentration 1 of 4): 0.76
CDI (Copper 0.1 mM, biocide concentration 2 of 4): Tox
CDI (Copper 0.1 mM, biocide concentration 3 of 4): Tox
CDI (Copper 0.1 mM, biocide concentration 4 of 4): Tox
CDI (Copper 0.5 mM, biocide concentration 1 of 4): 0.61
CDI (Copper 0.5 mM, biocide concentration 2 of 4): Tox
CDI (Copper 0.5 mM, biocide concentration 3 of 4): Tox
CDI (Copper 0.5 mM, biocide concentration 4 of 4): Tox
CDI (Copper 1.0 mM, biocide concentration 1 of 4): 0.76
CDI (Copper 1.0 mM, biocide concentration 2 of 4): Tox
CDI (Copper 1.0 mM, biocide concentration 3 of 4): Tox
CDI (Copper 1.0 mM, biocide concentration 4 of 4): Tox
CDI (coefficient of drug interaction) (Gold 5 μM, biocide concentration 2 of 4, E. coli): Tox
CDI (coefficient of drug interaction) (Gold 5 μM, biocide concentration 3 of 4, E. coli): Tox
CDI (coefficient of drug interaction) (Gold 5 μM, biocide concentration 4 of 4, E. coli): Tox
CDI (coefficient of drug interaction) (Gold 25 μM, biocide concentration 1 of 4, E. coli): 1.09
CDI (coefficient of drug interaction) (Gold 25 μM, biocide concentration 2 of 4, E. coli): Tox
CDI (coefficient of drug interaction) (Gold 25 μM, biocide concentration 3 of 4, E. coli): Tox
CDI (coefficient of drug interaction) (Gold 25 μM, biocide concentration 4 of 4, E. coli): Tox
CDI (coefficient of drug interaction), silver + biocide (Silver 0.5 μM, 1st of four biocide concentrations, E. coli): 1.55
CDI (coefficient of drug interaction), silver + biocide (Silver 0.5 μM, 2nd of four biocide concentrations, E. coli): Tox
CDI (coefficient of drug interaction), silver + biocide (Silver 0.5 μM, 3rd of four biocide concentrations, E. coli): Tox
CDI (coefficient of drug interaction), silver + biocide [1]: Tox
CDI (coefficient of drug interaction), silver + biocide (Silver 1.0 μM, 1st of four biocide concentrations, E. coli): 1.07
CDI (coefficient of drug interaction), silver + biocide (Silver 1.0 μM, 2nd of four biocide concentrations, E. coli): Tox
CDI (coefficient of drug interaction), silver + biocide (Silver 1.0 μM, 3rd of four biocide concentrations, E. coli): Tox
CDI (coefficient of drug interaction), silver + biocide [2]: Tox
CDI (coefficient of drug interaction), silver + biocide (Silver 5.0 μM, 1st of four biocide concentrations, E. coli): 1.21
CDI (coefficient of drug interaction), silver + biocide (Silver 5.0 μM, 2nd of four biocide concentrations, E. coli): Tox
CDI (coefficient of drug interaction), silver + biocide (Silver 5.0 μM, 3rd of four biocide concentrations, E. coli): Tox
CDI (coefficient of drug interaction), silver + biocide [3]: Tox
CDI (coefficient of drug interaction) ([…], biocide concentration 1 of 4, E. coli): 0.72
CDI (coefficient of drug interaction) ([…], biocide concentration 2 of 4, E. coli): Tox
CDI (coefficient of drug interaction) ([…], biocide concentration 3 of 4, E. coli): Tox
CDI (coefficient of drug interaction) ([…], biocide concentration 4 of 4, E. coli): Tox

Nc1n[nH]c(N)n1 [guanazole]
CDI (coefficient of drug interaction), copper mixed with biocide (1st of 3 copper concentrations (value not shown), 3rd of four biocide concentrations): Tox
CDI (coefficient of drug interaction), copper mixed with biocide [4]: Tox
CDI (coefficient of drug interaction), copper mixed with biocide (2nd of 3 copper concentrations (value not shown), 3rd of four biocide concentrations): Tox
CDI (coefficient of drug interaction), copper mixed with biocide [5]: Tox
CDI (coefficient of drug interaction), copper mixed with biocide (3rd of 3 copper concentrations (value not shown), 3rd of four biocide concentrations): Tox
CDI (coefficient of drug interaction), copper mixed with biocide [6]: Tox
CDI (coefficient of drug interaction) [7]: Tox
CDI (coefficient of drug interaction) [8]: Tox
CDI (coefficient of drug interaction) [9]: Tox
CDI (coefficient of drug interaction) [10]: Tox
CDI (coefficient of drug interaction) [11]: Tox
CDI (coefficient of drug interaction) [12]: Tox
CDI [13]: Tox
CDI [14]: Tox
CDI [15]: Tox
CDI [16]: Tox
CDI [17]: Tox
CDI [18]: Tox

Cc1onc(-c2ccccc2Cl)c1C(=O)N[C@@H]1C(=O)N2[C@@H]1SC(C)(C)[C@@H]2C(=O)O [cloxacillin]
CDI (coefficient of drug interaction) [19]: Tox
CDI (coefficient of drug interaction) [20]: Tox
CDI (coefficient of drug interaction) [21]: Tox
CDI (coefficient of drug interaction) [22]: Tox
CDI (coefficient of drug interaction), gold + biocide (Gold (μM), first of 3 gold concentrations, biocide concentration 4 of 4): Tox
CDI (coefficient of drug interaction), gold + biocide (Gold (μM), second of 3 gold concentrations, biocide concentration 4 of 4): Tox
CDI (coefficient of drug interaction), gold + biocide (Gold (μM), third of 3 gold concentrations, biocide concentration 4 of 4): Tox
CDI [13]: Tox
CDI [14]: Tox
CDI [15]: Tox
CDI [16]: Tox
CDI [17]: Tox
CDI [18]: Tox

CN(CC[C@H](N)CC(=O)N[C@H]1C=C[C@H](n2ccc(N)nc2=O)O[C@@H]1C(=O)O)C(=N)N [blasticidin S]
CDI (coefficient of drug interaction) (Copper (mM), 1st of 3 copper concentrations (head line not shown), biocide concentration 1 of 4, E. coli): 1.05
CDI (coefficient of drug interaction) (Copper (mM), 1st of 3 copper concentrations (head line not shown), biocide concentration 2 of 4, E. coli): 1.14
CDI (coefficient of drug interaction) (Copper (mM), 1st of 3 copper concentrations (head line not shown), biocide concentration 3 of 4, E. coli): 0.95
CDI (coefficient of drug interaction) [19]: Tox
CDI (coefficient of drug interaction) (Copper (mM), 2nd of 3 copper concentrations (head line not shown), biocide concentration 1 of 4, E. coli): 0.90
CDI (coefficient of drug interaction) (Copper (mM), 2nd of 3 copper concentrations (head line not shown), biocide concentration 2 of 4, E. coli): 0.96
CDI (coefficient of drug interaction) [20]: Tox
CDI (coefficient of drug interaction) [21]: Tox
CDI (coefficient of drug interaction) (Copper (mM), 3rd of 3 copper concentrations (head line not shown), biocide concentration 1 of 4, E. coli): 0.71
CDI (coefficient of drug interaction) (Copper (mM), 3rd of 3 copper concentrations (head line not shown), biocide concentration 2 of 4, E. coli): 0.65
CDI (coefficient of drug interaction) (Copper (mM), 3rd of 3 copper concentrations (head line not shown), biocide concentration 3 of 4, E. coli): 0.49
CDI (coefficient of drug interaction) [22]: Tox
CDI (coefficient of drug interaction) (Gold section of Table 5, first of three gold concentrations (μM, value not given), biocide concentration 1 of 4): 1.05
CDI (coefficient of drug interaction) (Gold section of Table 5, first of three gold concentrations (μM, value not given), biocide concentration 2 of 4): 0.95
CDI (coefficient of drug interaction) [7]: 0.97
CDI (coefficient of drug interaction) [8]: Tox
CDI (coefficient of drug interaction) (Gold section of Table 5, second of three gold concentrations (μM, value not given), biocide concentration 1 of 4): 1.06
CDI (coefficient of drug interaction) (Gold section of Table 5, second of three gold concentrations (μM, value not given), biocide concentration 2 of 4): 1.08
CDI (coefficient of drug interaction) [9]: 1.11
CDI (coefficient of drug interaction) [10]: Tox
CDI (coefficient of drug interaction) (Gold section of Table 5, third of three gold concentrations (μM, value not given), biocide concentration 1 of 4): 1.09
CDI (coefficient of drug interaction) (Gold section of Table 5, third of three gold concentrations (μM, value not given), biocide concentration 2 of 4): 1.06
CDI (coefficient of drug interaction) [11]: 1.11
CDI (coefficient of drug interaction) [12]: Tox
CDI (Silver 0.5 μM, biocide concentration 1 of 4): 1.04
CDI (Silver 0.5 μM, biocide concentration 2 of 4): 0.90
CDI [13]: 0.92
CDI [14]: Tox
CDI (Silver 1.0 μM, biocide concentration 1 of 4): 1.01
CDI (Silver 1.0 μM, biocide concentration 2 of 4): 1.02
CDI [15]: Tox
CDI [16]: Tox
CDI (Silver 5.0 μM, biocide concentration 1 of 4): 1.52
CDI (Silver 5.0 μM, biocide concentration 2 of 4): 1.40
CDI [17]: Tox
CDI [18]: Tox

N=C(N)N [guanidine hydrochloride]
CDI (coefficient of drug interaction), copper mixed with biocide [4]: Tox
CDI (coefficient of drug interaction), copper mixed with biocide [5]: Tox
CDI (coefficient of drug interaction), copper mixed with biocide [6]: Tox
CDI (coefficient of drug interaction) [8]: Tox
CDI (coefficient of drug interaction) [10]: Tox
CDI (coefficient of drug interaction) [12]: Tox
CDI (coefficient of drug interaction), silver + biocide [1]: Tox
CDI (coefficient of drug interaction), silver + biocide [2]: Tox
CDI (coefficient of drug interaction), silver + biocide [3]: Tox

N[C@@H](CC(=O)NO)C(=O)O [L-Aspartic-β-hydroxamate]
CDI (coefficient of drug interaction), gold + biocide: 1.03 and 1.06 and 1.05 and 1.11 and 1.19 and 1.02 and 1.01
